Counter-ions that a name gives are not always drawn. Like-named read-outs stand apart in the source and are kept apart here.

The conditions of data set [1]: cited from earlier work.
A short description of data set [2]: Solubility of the agrochemically active ingredient in the aqueous solution of water-soluble compound (B). It counts as physicochemical. The procedure:
While the method for measuring the solubility of the agrochemically active ingredient as the component (A) in the aqueous solution of the water-soluble compound as the component (B) is not particularly limitative, the method contains, for example, adding an excess amount of the agrochemically active ingredient in an aqueous solution in which given quantities of the water-soluble compound are dissolved in water, filtering the solution with a membrane filter after stirring at room temperature for several hours, and analyzing the concentration in the filtrate according to an analysis method of the respective agrochemically active ingredients to calculate the solubility. The concentrations of the water-soluble compounds for allowing the solubility of the respective agrochemically active ingredients to be smaller than 2 g/100 ml are determined in the invention by preparing aqueous solutions with different concentrations of variety of the component (B) such as an inorganic acid, the specified organic acid and alkali metal salt and ammonium salt thereof and by measuring the solubility of the agrochemically active ingredient in each aqueous solution.

On to `CN/C(=N/CC1CCOC1)N[N+](=O)[O-]` (racemic) [dinotefuran, (EZ)-(RS)-1-methyl-2-nitro-3-(tetrahydro-3-furylmethyl)guanidine], for which the solubility in water in data set [1] (20 °C, pure water) is reported as 5.43 g/100 ml.

Regarding `Oc1cccc2cccnc12` [8-hydroxyquinoline sulfate, bis(8-hydroxyquinolinium)sulfate], the solubility in water in data set [1] (20 °C, pure water) is on record as 30 g/100 ml. For the molecule `Cc1cc(Cl)ccc1OCC(=O)[O-].[Na+]` [MCPA-sodium, sodium (4-chloro-2-methylphenoxy)acetate], in data set [1] (water), the solubility in water is listed as 27 g/100 ml. `COC(=O)NS(=O)(=O)c1ccc(N)cc1.[Ca]` [asulam-calcium, calcium methyl sulfanilylcarbamate]: in data set [1] (20 °C, pure water), the solubility in water is listed as 20 g/100 ml. As a reminder, the solubility is the dissolved amount per volume that the medium holds. Read a high solubility as a readily soluble substance. Turning to `COc1cc(OC)nc(Oc2cccc(Oc3nc(OC)cc(OC)n3)c2C(=O)[O-])n1.[Na+]` [bispyribac-sodium, sodium 2,6-bis(4,6-dimethoxypyrimidin-2-yloxy)benzoate], in data set [1] (20 °C, pure water), the solubility in water is recorded as 7.3 g/100 ml. Besides, the solubility in data set [2] (aqueous ammonium hydrogencarbonate, 3.1 parts ammonium hydrogencarbonate in 75.4 parts water (Example 4)) was 9000 µg/mL; in data set [2] (aqueous sodium chloride, 3.1 parts sodium chloride in 75.4 parts water (Example 3)), 6000 µg/mL; in data set [2] (aqueous sodium hydrogencarbonate/sodium carbonate, 1.4 parts sodium hydrogencarbonate and 0.16 part sodium carbonate in 76.94 parts water (Comparative Example 2)), 30000 µg/mL; in data set [2] (aqueous sodium hydrogencarbonate/sodium carbonate, 1.6 parts sodium hydrogencarbonate and 0.18 part sodium carbonate in 46.77 parts water (Example 1)), 14000 µg/mL; in data set [2] (aqueous sodium hydrogencarbonate/sodium carbonate, 3.9 parts sodium hydrogencarbonate and 0.44 part sodium carbonate in 74.16 parts water (Example 2)), 4000 µg/mL. For the molecule `CCc1c(C(=O)[O-])c(=O)cnn1-c1ccc(Cl)cc1.[K+]` [clofencet-potassium, potassium 2-(4-chlorophenyl)-3-ethyl-2,5-dihydro-5-oxopyridazine-4-carboxylate], the solubility in water entry in data set [1] (20 °C, pure water) was “at least 65.5 g/100 ml”.

Take `COc1nn(C(=O)NS(=O)(=O)c2ccccc2OC(F)(F)F)c(=O)n1C` [flucarbazone-sodium, 4,5-dihydro-3-methoxy-4-methyl-5-oxo-N-[(2-(trifluoromethoxy)phenylsulfonyl]-1 H-1,2,4-triazole-1-carboxyamidesodium salt]: the solubility in water in data set [1] (20 °C, pure water) was 4.4 g/100 ml. The solubility in data set [2] (aqueous acetic acid/sodium acetate, 0.23 part acetic acid and 2.8 parts sodium acetate in 73.77 parts water (Example 5)) was found to be 11000 µg/mL. Take `COC(=O)c1ccc(C(F)(F)F)nc1S(=O)(=O)NC(=O)Nc1nc(OC)cc(OC)n1.[Na]` [flupyrsulfuron-methyl-sodium, methyl 2-(4,6-dimethoxypyrimidine-2-ylcarbamoylsulfamoyl)-6-trifluoromethylnicotinate monosodium salt]: in data set [1] (20 °C, pure water), the solubility in water is 6.3 g/100 ml.

Regarding `COc1cc(OC)nc(Sc2cccc(Cl)c2C(=O)[O-])n1.[Na+]` [pyrithiobac-sodium, sodium 2-chloro-6-(4,6-dimethoxypyrimidin-2-ylthio)benzoate], the solubility in water in data set [1] (20 °C, at pH 5) is 26.4 g/100 ml.

Values taken from EP1618784A1, “AQUEOUS AGRICULTURAL-CHEMICAL SUSPENSION COMPOSITION” (KUMIAI CHEMICAL INDUSTRY CO., LTD., priority 2003, dated 2004).
